How the values were obtained:
histone deacetylase = settings: reported in JP-B-7-64872; Experimental Cell Research (1998) 241, 126-133; cited from earlier work
[1] = tested on: HS-SY-2 synovial sarcoma cell strain (SYT-SSX protein expressing); assay: MTT cell growth assay, HS-SY-2 synovial sarcoma cell strain; assay type: cell-based; settings: HS-SY-2 cells; FK228 0.1-100 nM; exposure 24, 48, 96 hr; FIG. 1
Text: (§1) An SYT-SSX protein expressing synovial sarcoma cell line HS-SY-2 (established and kindly provided by Dr. Hiroshi Sonobe, Department of Pathology, National Fukuyama Hospital), YaFuSS (established and kindly provided by Dr. Junya Toguchida, Department of Tissue Regeneration, Institute for Frontier Medical Sciences, Kyoto University) and SYO-1 (established and kindly provided by Dr. Akira Kawai, Department of Orthopedics, Faculty of Medicine, Okayama University (now Department of Orthopedics, National Cancer Center)) were cultured in DMEM (Dulbecco's modified Eagle's medium) containing 10% (v/v) fetal bovine serum (FBS), 100 U/ml penicillin and 100 μg/ml streptomycin at 37° C. under 5% CO2 environment. These cells were plated and cultured for 24 hr, detached with 0.25% (w/v) trypsin and recovered. For cell growth ability, an MTT analysis kit (Colorimetric (MTT) assay for cell survival and proliferation kit of CHEMICON International, Inc.) was used. Each cell strain was plated in a 96 well microtiter plate at 10^3 cell/well, and after culture for 24 hr, exposed to a 0.1% (v/v) dilute ethanol solution of FK228 at a concentration distribution of 0.1 nM, 0.2 nM, 1 nM, 50 nM and 100 nM, and 0.1% (v/v) ethanol (Et-OH 0.1% in FIG. 1) as a control. After exposure for 24 hr, 48 hr and 96 hr, each culture was passed through a 570 nm filter and the absorbance was measured. […]

[2] = tested on: YaFuSS synovial sarcoma cell strain (SYT-SSX protein expressing); assay: MTT cell growth assay, YaFuSS synovial sarcoma cell strain; assay type: cell-based; settings: YaFuSS cells; FK228 0.1-100 nM; exposure 24, 48, 96 hr; FIG. 2
Text: as §1

[3] = tested on: SYO-1 synovial sarcoma cell strain (SYT-SSX protein expressing); assay: MTT cell growth assay, SYO-1 synovial sarcoma cell strain; assay type: cell-based; settings: SYO-1 cells; FK228 0.1-100 nM; exposure 24, 48, 96 hr; FIG. 3
Text: as §1

[4] = tested on: SYO-1 synovial sarcoma cell strain (SYT-SSX protein expressing); assay: Tumor volume after subcutaneous implantation of SYO-1 cells in nude mice; assay type: in vivo, BALB/C/nu/nu nude mice; settings: for antitumor activity in vivo against SYT-SSX protein expressing cells: summary statement
Description: Inbred male (BALB/C/nu/nu) nude mice were supplied by Charles River Japan, Inc. The animals were all fed and handled according to the Animal Test Guideline, Animal Resources Division, Advanced Science Research Center, Okayama University. FK228 was administered after 10 days from subcutaneous implantation of 10^5 cells each of the SYO-1 cell strain. The tumor volume was assumed by measuring two diameters perpendicular to each other using calipers and from the following formula (tumor volume=⅙π [(d1×d2)^3/2] (wherein d1 and d2 are two perpendicular diameters)). The dose was evaluated by intravenously administering a dilute FK228 solution (50 μl, 10% HCO60 which is polyoxyethylene (60) hydrogenated castor oil, diluted with physiological saline) at 0 mg/kg, 1.6 mg/kg or 3.2 mg/kg to 20 animals, and as a control, a 3.2 mg/kg dilute FK228 solution was intravenously injected to 7 animals free of tumor implantation. The administration was performed 3 times every 4 days, the tumor volume was also measured every 4 days, as well as after completion of the administration.

[5] = tested on: HTB93 synovial sarcoma cell strain (SW982; not expressing SYT-SSX protein); assay: MTT cell growth assay (survival rate), HTB93 synovial sarcoma cell strain; assay type: cell-based; settings: for antitumor activity against synovial sarcoma cell strain not expressing SYT-SSX protein: summary statement, HTB93 (SW982)
Description: An SYT-SSX protein non-expressing synovial sarcoma cell line HTB93 (purchased from ATCC: American Type Culture Collection) was cultured in DMEM (Dulbecco's modified Eagle's medium) containing 10% (v/v) fetal bovine serum (FBS), 100 U/ml penicillin and 100 μg/ml streptomycin at 37° C. under 5% CO2 environment. These cells were plated and cultured for 24 hr, detached with 0.25% (w/v) trypsin and recovered. For cell growth ability, an MTT analysis kit (Colorimetric MTT) assay for cell survival and proliferation kit of CHEMICON International, Inc.) was used. Each cell strain was plated in a 96 well microtiter plate at 2×10^3 cell/well, and after culture for 24 hr, exposed to a 0.1% (v/v) dilute ethanol solution of FK228 at a concentration distribution of 0.001 nM, 0.01 nM, 0.1 nM, 0.5 nM, 1 nM, 5 nM, 10 nM, 50 nM and 100 nM, 0.1% (v/v) ethanol as a control and the medium alone as a blank. After exposure for 24 hr, 48 hr, 72 hr and 96 hr, each culture was passed through a 570 nm filter and the absorbance was measured. All were performed with n=4.
For the results, average values of the FK228 addition sample, control and blank were taken, and using numerical values obtained by subtracting a blank value from the value of the FK228 addition sample or control, a percentage corresponding to the ratio of the numerical value of the FK228 addition sample relative to that of the control was taken as survival rate (%).

[6] = tested on: SYT-SSX protein expressing cells (HS-SY-2, YaFuSS, SYO-1); assay: In vitro antitumor activity against SYT-SSX protein expressing cells (summary statement); assay type: cell-based
Text: In an attempt to solve the above-mentioned problems, the present inventors have considered that, in synovial sarcoma, formation of the aforementioned complex of SYT-SSX protein, a chromatin remodeling-associated protein and histone deacetylase (HDAC)-associated protein enhances histone deacetylase activity, which in turn has an effect on the canceration, development and/or proliferation, of synovial sarcoma, and have conducted intensive studies of the effect of histone deacetylase inhibition on various synovial sarcoma cell strains (HS-SY-2, YaFuSS, SYO-1) that express SYT-SSX protein. […]

## C/C=C1\NC(=O)C2CSSCC/C=C/C(CCNC(C(C)C)C(=O)N2)OC(=O)C(C(C)C)NC1=O (stereo not shown) [compound A]
Histone deacetylase
  histone deacetylase inhibition: selectively inhibits histone deacetylase

## C/C=C1\NC(=O)[C@H]2CSSCC/C=C/[C@H](CC(=O)N[C@H](C(C)C)C(=O)N2)OC(=O)[C@H](C(C)C)NC1=O [FK228]
[1]
  in vitro antitumor effect: showed an in vitro antitumor effect
[2]
  in vitro antitumor effect: showed an in vitro antitumor effect
[3]
  in vitro antitumor effect: showed an in vitro antitumor effect
[4]; SYO-1 subcutaneous implant, i.v. 1.6 or 3.2 mg/kg, 3 times every 4 days, FIG. 4
  in vivo antitumor effect (tumor volume): showed an in vivo antitumor effect
[4]
  antitumor activity in vivo against SYT-SSX protein expressing cells: potent antiturnor activity
[5]; HTB93 cells, FK228 0.001-100 nM, exposure 24, 48, 72, 96 hr, FIG. 5
  in vitro antitumor effect (survival rate): showed an in vitro antitumor effect
[5]
  antitumor activity against synovial sarcoma cell strain not expressing SYT-SSX protein: potent antitumor activity
[6]
  antitumor activity in vitro against SYT-SSX protein expressing cells: potent antiturnor activity
Histone deacetylase
  histone deacetylase inhibition: selectively inhibits histone deacetylase

## CC(/C=C/C(=O)NO)=C\[C@@H](C)C(=O)c1ccc(N(C)C)cc1 [tricostatin A, Trichostatin A, reference compound]
[4]
  antitumor activity in vivo against SYT-SSX protein expressing cells: potent antiturnor activity
[5]
  antitumor activity against synovial sarcoma cell strain not expressing SYT-SSX protein: potent antitumor activity
[6]
  antitumor activity in vitro against SYT-SSX protein expressing cells: potent antiturnor activity

— patent US20060223747A1, “Therapeutic agent for soft tissue sarcoma” (Fujisawa Pharmaceutical Co. Ltd., priority 2003, published 2006)
